Test results as given in paper PMC7743948, “D-LL-31 enhances biofilm-eradicating effect of currently used antibiotics for chronic rhinosinusitis and its immunomodulatory activity on human lung epithelial cells” (PLoS ONE, 2020).
Where “and” joins values, the source holds several entries; their conditions need not be identical. Equal values may be shown once. Read-outs that look alike come from different tables or passages of the source. Ends that are not written are not given here.

What was measured:
K. pneumoniae [1] = assay: Disc antimicrobial susceptibility test (BD BBL Sensi-Disc); type: cell-based, Klebsiella pneumoniae; set-up: key: Susceptible; Intermediate; Resistant; conditions: 24 h
Description: (§1) Supplementary file pone.0243315.s001.docx: S1 Table Antimicrobial susceptibility test results of reference strain and representative bacteria used from CRS patients. Bacterial suspensions were incubated with antibiotics for 24 h and the results were interpreted according to BD BBL™ Sensi-Disc™ antimicrobial susceptibility test discs. (DOCX) Click here for additional data file.
(§2) Antibiotics susceptibility testing was performed using BD BBL™ Sensi-Disc™ antimicrobial susceptibility test discs (Becton, Dickinson and Company, Franklin Lakes, NJ) and the results were interpreted according to the manufacturer's instructions.

S. epidermidis [2] = assay: as above; type: cell-based, Staphylococcus epidermidis; set-up: key: Susceptible; Intermediate; Resistant; conditions: 24 h
Description: as §1, §2

K. pneumoniae [3] = assay: Broth microdilution MIC/MBC of conventional antibiotics, planktonic form; type: cell-based, Klebsiella pneumoniae; conditions: for MBC: broth microdilution then plate count on MHA; for MIC: broth microdilution, MHB, 5 x 10^5 CFU/ml, 37 °C, 24 h, CLSI
Description: (§3) MICs and MBCs of conventional antibiotics were determined using a broth microdilution technique. […] Only P. aeruginosa was additionally tested for susceptibility to TOB (Sigma-Aldrich) (0.03–52 μM or 0.01–25 μg/ml). Bacterial suspensions (5 x 10^5 CFU/ml) were added to the microtiter plates, which were then incubated at 37 °C for 24 h. Antibiotic-free culture was used as a control. […] The results were confirmed using a microplate reader at OD620 (Sunrise™, TECAN, Australia). The plate count technique was further used to determine the MBC values on Mueller Hinton agar (MHA) (Himedia®). Each experiment was performed independently three times in triplicate.

S. epidermidis [4] = assay: as above; type: cell-based, Staphylococcus epidermidis; conditions: MHB, 5 x 10^5 CFU/ml, 37 °C, 24 h, CLSI
Description: as §3

[5] = test system: all strains (bacteria isolated from CRS patients); assay: Broth microdilution susceptibility, statement for all strains; type: cell-based; conditions: planktonic form
Description: MICs and MBCs of conventional antibiotics were determined using a broth microdilution technique. […] Only P. aeruginosa was additionally tested for susceptibility to TOB (Sigma-Aldrich) (0.03–52 μM or 0.01–25 μg/ml). Bacterial suspensions (5 x 10^5 CFU/ml) were added to the microtiter plates, which were then incubated at 37 °C for 24 h. Antibiotic-free culture was used as a control. After incubation, MIC values were observed according to the guidelines of the Clinical & Laboratory Standards Institute (CLSI). The results were confirmed using a microplate reader at OD620 (Sunrise™, TECAN, Australia). The plate count technique was further used to determine the MBC values on Mueller Hinton agar (MHA) (Himedia®). Each experiment was performed independently three times in triplicate.

K. pneumoniae biofilm [6] = assay: microbe, parasite or virus in culture
Description: (§4) The effects of both conventional antibiotics and AMPs against bacteria under biofilm-stimulating condition were determined using a transferable solid phase (TSP) pin lid, which resembles the ‘Calgary’ biofilm device as previously described with some modifications. Each strain (10^7 CFU/ml) was added to sterile 96-well plates (Nunclon™), then covered by a TSP pin lid (NUNC™, Roskilde, Denmark), and further incubated at 37 °C for 24 h. […] Additionally, the effect of TOB (2–836 μM or 1–391 μg/ml) against P. aeruginosa biofilm was also investigated. Then the plates were statically incubated at 37 °C for 24 h. A well free of antimicrobial agent was used as a control. After 24 h, bacterial survival was determined using the plate count technique on NA (Himedia®). The percentage killing of each antimicrobial agent was calculated using the formula [1 − (CFU sample/CFU control)] × 100% [15, 19]. […] Each experiment was performed independently three times in duplicate.

P. aeruginosa biofilm [7] = assay: microbe, parasite or virus in culture
Description: as §4

S. epidermidis biofilm [8] = assay: microbe, parasite or virus in culture
Description: as §4

K. pneumoniae biofilm [9] = assay: Checkerboard synergy of D-LL-31 with antibiotics on biofilm; type: cell-based, Klebsiella pneumoniae; conditions: Klebsiella pneumoniae, read-out: Antimicrobial agent in concentration of combination
Description: (§5) Bacterial viability in each interaction was determined using the plate count technique. The fractional inhibitory concentration index (FICI) values were calculated and interpreted in terms of synergism/antagonism as previously described. Each experiment was performed independently three times in duplicate.

S. epidermidis biofilm [10] = assay: as above; type: cell-based, Staphylococcus epidermidis; conditions: Staphylococcus epidermidis, read-out: Antimicrobial agent in concentration of combination
Description: as §5

P. aeruginosa biofilm [11] = assay: as above; type: cell-based, Pseudomonas aeruginosa
Description: as §5

[12] = test system: S. epidermidis biofilm matrix; assay: Biofilm matrix reduction (AAA-model, CLSM, COMSTAT biomass); type: cell-based, Staphylococcus epidermidis; conditions: AMX alone at IC50 (33092 μM), 24 h, P < 0.05
Description: Briefly, 1.5 ml of each overnight culture (10^8 CFU/ml) was added to a 24-well tissue culture plate (Nunclon™). The plate was covered with a sterile stainless-steel lid containing glass coverslips and aerobically incubated at 37°C for 24 h. […] All tested conditions were incubated at 37°C for 24 h. A well free of antimicrobial agent was used as a control. Following incubation, biofilms were fixed with 2.5% glutaraldehyde (Sigma-Aldrich) at 25°C for 3 h. The fixed bacterial biofilms on glass coverslips were stained with 50 μg/ml Alexa Fluor® 488 (Invitrogen, Carlsbad, CA) for 30 min. This stain reacts with exopolysaccharide matrixes of the biofilm. The glass coverslips were then mounted with 80% glycerol and the stained cells were photographed using a confocal laser-scanning microscope (CLSM) (TCS SP8-Leica Microsystems, Wetzlar, Germany). […] Each experiment was performed independently three times in duplicate.

P. aeruginosa ATCC27853 = assay: Disc antimicrobial susceptibility test (BD BBL Sensi-Disc); type: cell-based, Pseudomonas aeruginosa; set-up: key: Susceptible; Intermediate; Resistant; conditions: 24 h
Description: as §1, §2

P. aeruginosa [13] = assay: as above; type: cell-based, Pseudomonas aeruginosa; set-up: key: Susceptible; Intermediate; Resistant; conditions: 24 h
Description: as §1, §2

P. aeruginosa [14] = assay: Broth microdilution MIC/MBC of conventional antibiotics, planktonic form; type: cell-based, Pseudomonas aeruginosa; conditions: for MBC: broth microdilution then plate count on MHA, planktonic
Description: as §3

[15] = test system: clinical isolate P. aeruginosa; assay: Killing of planktonic bacteria (CFU count); type: cell-based, Pseudomonas aeruginosa; conditions: 1–2 h
Description: (§6) A bacterial suspension without peptide served as a control. The samples were then serially diluted and cultivated on NA (Himedia®) and incubated for 24 h to allow colony counting. The percentage killing by each AMP was calculated using the formula [1 − (CFU sample/CFU control)] × 100% [15, 36]. Each experiment was performed independently three times in duplicate.

[16] = test system: reference strain P. aeruginosa ATCC 27853; assay: Killing of planktonic bacteria (CFU count); type: cell-based, Pseudomonas aeruginosa
Description: as §6

[17] = highest concentration of AMX (68418 μM or 25000 μg/ml), 24 h biofilm, 24 h
[18] = Pseudomonas aeruginosa, 24 h, read-out: IC50 value

With `CC1(C)S[C@@H]2[C@H](NC(=O)[C@H](N)c3ccccc3)C(=O)N2[C@H]1C(=O)O` [AMP, Ampicillin] the antimicrobial susceptibility (K. pneumoniae [1]) was “R” and the antimicrobial susceptibility (S. epidermidis [2]) was “R”.
`CC1(C)S[C@@H]2[C@H](NC(=O)[C@H](N)c3ccc(O)cc3)C(=O)N2[C@H]1C(=O)O` [AMX, amoxicillin] gave an MBC (K. pneumoniae [3]; Klebsiella pneumoniae, read-out: MBC) of 8.55 mM, an MIC (K. pneumoniae [3]; Klebsiella pneumoniae, three independent experiments in triplicate, read-out: MIC) of 4.28 mM and an MBC (K. pneumoniae [3]) of 3125 µg/mL. For the same compound, the MIC (K. pneumoniae [3]) was 1562.5 µg/mL, the MIC (S. epidermidis [4]) was 1562.5 µg/mL and the MIC (S. epidermidis [4]; Staphylococcus epidermidis, read-out: MIC) was 4.28 mM. The susceptibility in words [5] was “Resistance”, the IC50 (K. pneumoniae biofilm [6]; Klebsiella pneumoniae, 24 h, read-out: IC50 value) was 7.92 mM and 2900 µg/mL and the “IC50 of AMX higher than that of D-LL-31” value (K. pneumoniae biofilm [6]; biofilm) was about 13000 fold. The killing activity (K. pneumoniae biofilm [6]; [17]) was 90%, the IC50 (P. aeruginosa biofilm [7]; [18]) was 45.2 mM and 16500 µg/mL and the “IC50 of AMX higher than that of D-LL-31” value (P. aeruginosa biofilm [7]; biofilm) was “about 11000 fold”. For the same compound, the killing activity (P. aeruginosa biofilm [7]; [17]) was 70%, the IC50 (S. epidermidis biofilm [8]; Staphylococcus epidermidis, 24 h, read-out: IC50 value) was 33.1 mM and 12100 µg/mL and the “IC50 of AMX higher than that of D-LL-31” value (S. epidermidis biofilm [8]; biofilm) was about 66000 fold. It also gave a killing activity (S. epidermidis biofilm [8]; [17]) of 75%, an IC50 (K. pneumoniae biofilm [9]; 24 h) of 495 µM and an IC50 (K. pneumoniae biofilm [9]) of 181 µg/mL. The IC50 (S. epidermidis biofilm [10]; 24 h) was 2070 µM, the IC50 (S. epidermidis biofilm [10]) was 756 µg/mL and the IC50 (P. aeruginosa biofilm [11]; Pseudomonas aeruginosa, 24 h; read-out: Antimicrobial agent in concentration of combination) was 2820 µM. For the same compound, the IC50 (P. aeruginosa biofilm [11]; Pseudomonas aeruginosa; read-out: Antimicrobial agent in concentration of combination) was 1030 µg/mL and the “effect on biofilm biomass” value [12] was “significant effect”.
`O=C(N[C@H](CO)[C@H](O)c1ccc([N+](=O)[O-])cc1)C(Cl)Cl` [CHL, Chloramphenicol] was tested, and the antimicrobial susceptibility (K. pneumoniae [1]) was “S”, the antimicrobial susceptibility (S. epidermidis [2]) was “S” and the antimicrobial susceptibility (P. aeruginosa ATCC27853) was “S”. For the same compound, the antimicrobial susceptibility (P. aeruginosa [13]) was “R”.
With `CO/N=C(\C(=O)N[C@@H]1C(=O)N2C(C(=O)O)=C(CSc3nc(=O)c(=O)[nH]n3C)CS[C@H]12)c1csc(N)n1` [CRO, Ceftriaxone] the antimicrobial susceptibility (K. pneumoniae [1]) was “S”, the antimicrobial susceptibility (S. epidermidis [2]) was “S” and the antimicrobial susceptibility (P. aeruginosa ATCC27853) was “S”. For the same compound, the antimicrobial susceptibility (P. aeruginosa [13]) was “R”.
In the case of `CC[C@H]1OC(=O)[C@H](C)[C@@H](O[C@H]2C[C@@](C)(OC)[C@@H](O)[C@H](C)O2)[C@H](C)[C@@H](O[C@@H]2O[C@H](C)C[C@H](N(C)C)[C@H]2O)[C@](C)(O)C[C@@H](C)C(=O)[C@H](C)[C@@H](O)[C@]1(C)O` [ERY, Erythromycin], the antimicrobial susceptibility (S. epidermidis [2]) is reported as “R”.
For `CNC(C)C1CCC(N)C(OC2C(N)CC(N)C(OC3OCC(C)(O)C(NC)C3O)C2O)O1` (centres unmarked) [GEN, Gentamicin], the antimicrobial susceptibility (K. pneumoniae [1]) was “I”, the antimicrobial susceptibility (S. epidermidis [2]) was “S” and the antimicrobial susceptibility (P. aeruginosa ATCC27853) was “S”. The antimicrobial susceptibility (P. aeruginosa [13]) was “I”.
With `NC[C@H]1O[C@H](O[C@H]2[C@H](O)[C@@H](O[C@H]3O[C@H](CO)[C@@H](O)[C@H](N)[C@H]3O)[C@H](N)C[C@@H]2N)[C@H](O)[C@@H](O)[C@@H]1O` [KAN, Kanamycin] the antimicrobial susceptibility (K. pneumoniae [1]) was “S” and the antimicrobial susceptibility (S. epidermidis [2]) was “S”.
`Cc1onc(-c2ccccc2)c1C(=O)N[C@@H]1C(=O)N2[C@@H]1SC(C)(C)[C@@H]2C(=O)O` [OXA, Oxacillin] was tested, and the antimicrobial susceptibility (S. epidermidis [2]) was “S”.
`CN(C)[C@@H]1C(O)=C(C(N)=O)C(=O)[C@@]2(O)C(O)=C3C(=O)c4c(O)cccc4[C@@](C)(O)[C@H]3C[C@@H]12` [TET, Tetracycline] was tested, and the antimicrobial susceptibility (K. pneumoniae [1]) was “I”, the antimicrobial susceptibility (S. epidermidis [2]) was “S” and the antimicrobial susceptibility (P. aeruginosa ATCC27853) was “S”. The antimicrobial susceptibility (P. aeruginosa [13]) was “R”.
`NC[C@H]1O[C@H](O[C@H]2[C@H](O)[C@@H](O[C@H]3O[C@H](CO)[C@@H](O)[C@H](N)[C@H]3O)[C@H](N)C[C@@H]2N)[C@H](N)C[C@@H]1O` [TOB, tobramycin] was tested, and the MBC (P. aeruginosa [14]; Pseudomonas aeruginosa, read-out: MBC) was 0.001 mM, the MBC (P. aeruginosa [14]) was 0.4 µg/mL and the susceptibility in words (P. aeruginosa [14]; planktonic form) was “susceptible”. For the same compound, the killing effect ([15]; 1 and 5 μM) was at least 92%, the “concentration required to kill all bacterial cells” value ([15]; planktonic) was 10 µM and the killing effect ([16]; 1 μM, 1 h) was at least 98%. For the same compound, the “killing of bacterial cells, in words” value ([16]; 5 and 10 μM, within 1 h) was “killed all bacterial cells”, the “sensitivity of biofilm, in words” value (P. aeruginosa biofilm [7]; 24 h biofilm, 24 h) was “sensitive” and the IC50 (P. aeruginosa biofilm [7]; [18]) was 4 µM and 2 µg/mL. The “Fold decrease of IC50 values” (P. aeruginosa biofilm [11]; D-LL-31 combined with TOB; IC50 alone compared with concentration of combination) was 16 fold, the IC50 (P. aeruginosa biofilm [11]; Pseudomonas aeruginosa, 24 h, read-out: Antimicrobial agent in concentration of combination) was 0.2 µM and the IC50 (P. aeruginosa biofilm [11]; Pseudomonas aeruginosa, read-out: Antimicrobial agent in concentration of combination) was 0.1 µg/mL. For the same compound, the antimicrobial susceptibility (K. pneumoniae [1]) was “S”, the antimicrobial susceptibility (S. epidermidis [2]) was “S” and the antimicrobial susceptibility (P. aeruginosa ATCC27853) was “S”. The antimicrobial susceptibility (P. aeruginosa [13]) was “S”.
LLGDFFRKSKEKIGKEFKRIVQRIKDFLRNL [LL-31] showed an IC50 (K. pneumoniae biofilm [6]; biofilm, 24 h) of 0.7 µM, an IC50 (P. aeruginosa biofilm [7]; biofilm, 24 h) of 5.3 µM and an IC50 (S. epidermidis biofilm [8]; biofilm, 24 h) of 1.8 µM.
With Penicillin the antimicrobial susceptibility (S. epidermidis [2]) was “S”.
